Holding throughout (assay): relative viability (nuclei count vs DMSO), 5 days (fraction); higher = more cells survive
Compound in the assay “Vismodegib + Pictilisib”: CS(=O)(=O)c1ccc(C(=O)Nc2ccc(Cl)c(-c3ccccn3)c2)c(Cl)c1 [Vismodegib] + CS(=O)(=O)N1CCN(Cc2cc3nc(-c4cccc5[nH]ncc45)nc(N4CCOCC4)c3s2)CC1 [Pictilisib] (partner 1 µM)
Summed up:
(§1)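 One day after seeding in 1536-well plates, lung cancer cell lines were dosed by pin tool. Dosing was either single-drug or a fixed anchor-drug dose plus five library-drug doses (not always all listed) in √10 steps. After 5 days, nuclei were stained in one fix-and-stain step and counted on 4× images, and relative viability is the nuclei count of treated wells over that of vehicle wells, given as the median of duplicate plates.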

Compound in the assay “VE-821 + OSI-027”: CS(=O)(=O)c1ccc(-c2cnc(N)c(C(=O)Nc3ccccc3)n2)cc1 [VE-821] + COc1cccc2cc(-c3nc([C@H]4CC[C@H](C(=O)O)CC4)n4ncnc(N)c34)[nH]c12 [OSI-027] (partner 0.5 µM)
In outline:
as §1

Compound in the assay “VE-821 + Pemetrexed”: CS(=O)(=O)c1ccc(-c2cnc(N)c(C(=O)Nc3ccccc3)n2)cc1 [VE-821] + Nc1nc2[nH]cc(CCc3ccc(C(=O)N[C@@H](CCC(=O)O)C(=O)O)cc3)c2c(=O)[nH]1 [Pemetrexed] (partner 0.2 µM)
In outline: as §1

Compound in the assay “VE-821 + Vorinostat”: CS(=O)(=O)c1ccc(-c2cnc(N)c(C(=O)Nc3ccccc3)n2)cc1 [VE-821] + O=C(CCCCCCC(=O)Nc1ccccc1)NO [Vorinostat] (partner 1 µM)
In outline: as §1

As for EBC-1, the relative viability is 0.38 in the assay with Vismodegib + Pictilisib (first compound 0.08 µM); 0.433 with Vismodegib + Pictilisib (first compound 0.253 µM); 0.386 in the assay with Vismodegib + Pictilisib (first compound 0.8 µM); 0.426 with Vismodegib + Pictilisib (first compound 2.53 µM); 0.433 in the assay with Vismodegib + Pictilisib (first compound 8 µM).

In the case of EKVX, the relative viability with Vismodegib + Pictilisib (first compound 0.08 µM) amounted to 0.47; in the assay with Vismodegib + Pictilisib (first compound 0.253 µM), 0.462; in the assay with Vismodegib + Pictilisib (first compound 0.8 µM) it was 0.391; in the assay with Vismodegib + Pictilisib (first compound 2.53 µM), 0.355; in the assay with Vismodegib + Pictilisib (first compound 8 µM) it was 0.395; with VE-821 + OSI-027 (first compound 0.08 µM), 0.696. Besides, the relative viability with VE-821 + OSI-027 (first compound 0.253 µM) was 0.675; in the assay with VE-821 + OSI-027 (first compound 0.8 µM), 0.676; with VE-821 + OSI-027 (first compound 2.53 µM) it was 0.745; in the assay with VE-821 + OSI-027 (first compound 8 µM) it was 0.605; with VE-821 + Pemetrexed (first compound 0.08 µM), 0.422; with VE-821 + Pemetrexed (first compound 0.253 µM), 0.373. Also, the relative viability in the assay with VE-821 + Pemetrexed (first compound 0.8 µM) is 0.419; with VE-821 + Pemetrexed (first compound 2.53 µM), 0.341; with VE-821 + Pemetrexed (first compound 8 µM) it was 0.227; with VE-821 + Vorinostat (first compound 0.08 µM), 0.961; with VE-821 + Vorinostat (first compound 0.253 µM), 0.665; with VE-821 + Vorinostat (first compound 0.8 µM) it was 0.707. The relative viability was determined as 0.81 with VE-821 + Vorinostat (first compound 2.53 µM) and 0.452 in the assay with VE-821 + Vorinostat (first compound 8 µM).

Take EMC-BAC-2: the relative viability with Vismodegib + Pictilisib (first compound 0.08 µM) is 0.541; with Vismodegib + Pictilisib (first compound 0.253 µM), 0.516; in the assay with Vismodegib + Pictilisib (first compound 0.8 µM), 0.588; with Vismodegib + Pictilisib (first compound 2.53 µM), 0.529; with Vismodegib + Pictilisib (first compound 8 µM), 0.461; with VE-821 + OSI-027 (first compound 0.08 µM), 0.398. Besides, the relative viability with VE-821 + OSI-027 (first compound 0.253 µM) was determined as 0.319; with VE-821 + OSI-027 (first compound 0.8 µM), 0.372; with VE-821 + OSI-027 (first compound 2.53 µM), 0.388; in the assay with VE-821 + OSI-027 (first compound 8 µM), 0.346; in the assay with VE-821 + Pemetrexed (first compound 0.08 µM), 0.45; with VE-821 + Pemetrexed (first compound 0.253 µM) it was 0.391. In addition, the relative viability was found to be 0.427 in the assay with VE-821 + Pemetrexed (first compound 0.8 µM); 0.371 with VE-821 + Pemetrexed (first compound 2.53 µM); 0.308 with VE-821 + Pemetrexed (first compound 8 µM); 0.495 in the assay with VE-821 + Vorinostat (first compound 0.08 µM); 0.423 in the assay with VE-821 + Vorinostat (first compound 0.253 µM); 0.431 with VE-821 + Vorinostat (first compound 0.8 µM). In addition, the relative viability with VE-821 + Vorinostat (first compound 2.53 µM) was 0.416; with VE-821 + Vorinostat (first compound 8 µM), 0.338.

Take EPLC-272H: the relative viability is 0.319 with Vismodegib + Pictilisib (first compound 0.08 µM); 0.382 in the assay with Vismodegib + Pictilisib (first compound 0.253 µM); 0.308 with Vismodegib + Pictilisib (first compound 0.8 µM); 0.317 with Vismodegib + Pictilisib (first compound 2.53 µM); 0.293 in the assay with Vismodegib + Pictilisib (first compound 8 µM); 0.286 with VE-821 + OSI-027 (first compound 0.08 µM). In addition, the relative viability in the assay with VE-821 + OSI-027 (first compound 0.253 µM) worked out at 0.268; with VE-821 + OSI-027 (first compound 0.8 µM) it was 0.296; in the assay with VE-821 + OSI-027 (first compound 2.53 µM), 0.333; with VE-821 + OSI-027 (first compound 8 µM), 0.21; in the assay with VE-821 + Pemetrexed (first compound 0.08 µM) it was 0.347; with VE-821 + Pemetrexed (first compound 0.253 µM) it was 0.36. The relative viability in the assay with VE-821 + Pemetrexed (first compound 0.8 µM) is 0.218; with VE-821 + Pemetrexed (first compound 2.53 µM), 0.141; in the assay with VE-821 + Pemetrexed (first compound 8 µM), 0.0907; with VE-821 + Vorinostat (first compound 0.08 µM) it was 0.575; with VE-821 + Vorinostat (first compound 0.253 µM), 0.378; with VE-821 + Vorinostat (first compound 0.8 µM) it was 0.332. Also, the relative viability was 0.428 with VE-821 + Vorinostat (first compound 2.53 µM) and 0.157 with VE-821 + Vorinostat (first compound 8 µM).

As for H3255, the relative viability came to 0.483 with Vismodegib + Pictilisib (first compound 0.08 µM); 0.481 with Vismodegib + Pictilisib (first compound 0.253 µM); 0.479 in the assay with Vismodegib + Pictilisib (first compound 0.8 µM); 0.471 in the assay with Vismodegib + Pictilisib (first compound 2.53 µM); 0.471 with Vismodegib + Pictilisib (first compound 8 µM); 0.603 in the assay with VE-821 + OSI-027 (first compound 0.08 µM). Besides, the relative viability in the assay with VE-821 + OSI-027 (first compound 0.253 µM) was determined as 0.584; in the assay with VE-821 + OSI-027 (first compound 0.8 µM) it was 0.637; with VE-821 + OSI-027 (first compound 2.53 µM) it was 0.606; with VE-821 + OSI-027 (first compound 8 µM) it was 0.566; with VE-821 + Pemetrexed (first compound 0.08 µM), 0.6; in the assay with VE-821 + Pemetrexed (first compound 0.253 µM), 0.583. Besides, the relative viability with VE-821 + Pemetrexed (first compound 0.8 µM) was 0.61; in the assay with VE-821 + Pemetrexed (first compound 2.53 µM), 0.604; in the assay with VE-821 + Pemetrexed (first compound 8 µM), 0.517; with VE-821 + Vorinostat (first compound 0.08 µM), 0.953; with VE-821 + Vorinostat (first compound 0.253 µM), 0.742; with VE-821 + Vorinostat (first compound 0.8 µM) it was 0.915. The relative viability with VE-821 + Vorinostat (first compound 2.53 µM) is 0.772; with VE-821 + Vorinostat (first compound 8 µM), 0.805.

In the case of HARA, the relative viability came to 0.472 with Vismodegib + Pictilisib (first compound 0.08 µM); 0.423 with Vismodegib + Pictilisib (first compound 0.253 µM); 0.417 with Vismodegib + Pictilisib (first compound 0.8 µM); 0.396 with Vismodegib + Pictilisib (first compound 2.53 µM); 0.448 with Vismodegib + Pictilisib (first compound 8 µM); 0.75 with VE-821 + OSI-027 (first compound 0.08 µM). The relative viability with VE-821 + OSI-027 (first compound 0.253 µM) came to 0.434; in the assay with VE-821 + OSI-027 (first compound 0.8 µM) it was 0.497; with VE-821 + OSI-027 (first compound 2.53 µM), 0.76; with VE-821 + OSI-027 (first compound 8 µM), 0.392; in the assay with VE-821 + Pemetrexed (first compound 0.08 µM) it was 0.253; with VE-821 + Pemetrexed (first compound 0.253 µM) it was 0.232. Further, the relative viability with VE-821 + Pemetrexed (first compound 0.8 µM) turned out to be 0.201; with VE-821 + Pemetrexed (first compound 2.53 µM), 0.169; with VE-821 + Pemetrexed (first compound 8 µM) it was 0.131; with VE-821 + Vorinostat (first compound 0.08 µM), 0.6; in the assay with VE-821 + Vorinostat (first compound 0.253 µM), 0.472; with VE-821 + Vorinostat (first compound 0.8 µM), 0.624. Moreover, the relative viability turned out to be 0.633 with VE-821 + Vorinostat (first compound 2.53 µM) and 0.708 with VE-821 + Vorinostat (first compound 8 µM).

On to HCC-15, for which the relative viability in the assay with Vismodegib + Pictilisib (first compound 0.08 µM) came out at 0.754; with Vismodegib + Pictilisib (first compound 0.253 µM), 0.758; with Vismodegib + Pictilisib (first compound 0.8 µM), 0.711; in the assay with Vismodegib + Pictilisib (first compound 2.53 µM) it was 0.748; in the assay with Vismodegib + Pictilisib (first compound 8 µM), 0.597; in the assay with VE-821 + OSI-027 (first compound 0.08 µM), 0.835. Further, the relative viability is 0.689 with VE-821 + OSI-027 (first compound 0.253 µM); 0.692 in the assay with VE-821 + OSI-027 (first compound 0.8 µM); 0.855 in the assay with VE-821 + OSI-027 (first compound 2.53 µM); 0.682 with VE-821 + OSI-027 (first compound 8 µM); 0.219 with VE-821 + Pemetrexed (first compound 0.08 µM); 0.23 with VE-821 + Pemetrexed (first compound 0.253 µM). Besides, the relative viability turned out to be 0.21 in the assay with VE-821 + Pemetrexed (first compound 0.8 µM); 0.211 in the assay with VE-821 + Pemetrexed (first compound 2.53 µM); 0.179 in the assay with VE-821 + Pemetrexed (first compound 8 µM); 0.954 with VE-821 + Vorinostat (first compound 0.08 µM); 0.868 with VE-821 + Vorinostat (first compound 0.253 µM); 0.901 with VE-821 + Vorinostat (first compound 0.8 µM). For the same cell line, the relative viability with VE-821 + Vorinostat (first compound 2.53 µM) is 0.943; with VE-821 + Vorinostat (first compound 8 µM), 0.934.

HCC-44: the relative viability stood at 0.611 in the assay with Vismodegib + Pictilisib (first compound 0.08 µM); 0.657 with Vismodegib + Pictilisib (first compound 0.253 µM); 0.546 with Vismodegib + Pictilisib (first compound 0.8 µM); 0.474 with Vismodegib + Pictilisib (first compound 2.53 µM); 0.668 with Vismodegib + Pictilisib (first compound 8 µM); 0.498 with VE-821 + OSI-027 (first compound 0.08 µM). The relative viability in the assay with VE-821 + OSI-027 (first compound 0.253 µM) was 0.427; in the assay with VE-821 + OSI-027 (first compound 0.8 µM) it was 0.634; with VE-821 + OSI-027 (first compound 2.53 µM), 0.563; with VE-821 + OSI-027 (first compound 8 µM), 0.556; in the assay with VE-821 + Pemetrexed (first compound 0.08 µM), 0.613; with VE-821 + Pemetrexed (first compound 0.253 µM) it was 0.649. Moreover, the relative viability amounted to 0.596 in the assay with VE-821 + Pemetrexed (first compound 0.8 µM); 0.479 with VE-821 + Pemetrexed (first compound 2.53 µM); 0.447 in the assay with VE-821 + Pemetrexed (first compound 8 µM); 1.07 in the assay with VE-821 + Vorinostat (first compound 0.08 µM); 1.07 with VE-821 + Vorinostat (first compound 0.253 µM); 1.12 in the assay with VE-821 + Vorinostat (first compound 0.8 µM). Further, the relative viability came out at 1.15 with VE-821 + Vorinostat (first compound 2.53 µM) and 1.09 in the assay with VE-821 + Vorinostat (first compound 8 µM).

The record behind these values is the supplement of paper PMC10307832.
